Values joined by “and” are separate entries in the source; they are usually repeats but may differ in a detail not shown here. Identical values can stand only once.
Key:
[1] = Hygroscopicity by dynamic vapor sorption (DVS); assay type: physicochemical; conditions: 25±1° C. and 80±2% RH
Method: Instrument model: SMS DVS Advantage
Test conditions: a sample (10-15 mg) of the crystal of the compound of formula I prepared in Example 2 was placed in a DVS sample tray for testing.
The detailed DVS parameters were as follows:
Balancing: dm/dt=0.01%/min (shortest: 10 min, longest: 180 min)
Drying: drying at 0% RH for 120 min
RH (%) test gradient: 10%
Range of RH (%) test gradient: 0%-90%-0%
Note: ΔW % represents the moisture gain of the test compound at 25±1° C. and 80±2% RH.

[2] = Solid stability of the crystal, purity by HPLC; assay type: physicochemical
Excerpt: References were made to the requirements in the “Guidelines for the Stability Test of APIs and Preparations” (Appendix XIX C of the Volume Two of the Chinese Pharmacopoeia, 2010 Edition) for the conditions and the method for the stability test of the crystal, and the stability of the crystalline solid under conditions of different influence factors was studied with the crystal prepared in Example 2 as a test sample.
High performance liquid chromatography (HPLC): column: Waters xbridge shiled RP18 (150 mm*4.6 mm, 3.5 μm); PN: 186003045; wavelength: 228 nm; mobile phase A: pH 4.5, 5 mmol/L sodium acetate buffer solution (pH adjusted with phosphoric acid); mobile phase B: acetonitrile; elution mode: gradient elution.

[3] = Pharmacokinetic test in male CD-1 mice, plasma by LC/MS/MS; assay type: in vivo; conditions: mouse, po, intragastric administration, 2 mg/kg
Method: Taking male CD-1 mice as test animals, the drug concentrations in the plasma of the mice at different time points after intravenous and intragastric administration of the compound of formula I were determined by an LC/MS/MS method. This example aims to investigate the pharmacokinetic performance of the compound of formula I in mice and to evaluate the pharmacokinetic characteristics.
2.2 Test Animals: 4 Healthy Adult Male CD-1 Mice, which were Divided into 2 Groups (2 Mice in Each Group) According to the Body Weight. Animals were Purchased from Shanghai Sippe-Bk Lab Animal Co., Ltd., and Animal Production License Number was SCXK (Shanghai) 2013-0016. 2.3 Drug Preparation
An appropriate amount of sample was weighed, and sequentially added with an appropriate amount of DMSO, PEG400 and water according to the volume ratio of 10:40:50, and the mixture was stirred and ultrasonicated to a clear state (0.4 mg/mL) for intravenous administration. […]
LC/MS/MS method was used to determine the content of the test compound in the plasma of mice after intravenous and intragastric administration. The linear range of the method was 2.00-6000 nmol/L; plasma samples were analyzed after treatment with acetonitrile to precipitate proteins.

[4] = system: human prostate cancer LNCaP-FGC cells; assay: In vivo pharmacodynamic study on subcutaneous xenograft tumor model of human prostate cancer LNCaP-FGC cells; design: species or system CB-17 SCID mouse; conditions: for Relative tumor proliferation rate T/C / TGI: after 21 days of administration
Method: Human prostate cancer LNCaP-FGC cells (ATCC, Manassas, VA) were cultured in vitro, in a monolayer way, in an RPMI1640 medium containing 10% fetal bovine serum at 37° C. and 5% CO2. Routine digestion treatment with pancreatin-EDTA was performed twice a week for passage. When the saturation degree of the cells is 80-90%, the cells were collected, counted and inoculated.
0.2 mL (10×10^6) of LNCaP-FGC cells (10×10^6+Matrigel, 1:1) were inoculated subcutaneously into the right back of each CB-17 SCID mouse. The mice were divided into groups for administration when the mean tumor volume reached 100-150 mm^3.
Tumor diameters were measured twice weekly using a vernier caliper. The calculation formula for tumor volume was: V=0.5a×b^2, with a and b representing the long and short diameters of the tumor, respectively. The anti-tumor therapeutic effect of the compound was evaluated by TGI (%) or relative tumor proliferation rate T/C (%). TGI (%)=[(1−(average tumor volume of a treatment group at the end of administration−average tumor volume of the treatment group at the start of administration))/(average tumor volume of a vehicle control group at the end of treatment-average tumor volume of the vehicle control group at the start of treatment)]×100%. The calculation formula for relative tumor proliferation rate T/C (%) was as follows: T/C %=TRTV/CRTV×100% (TRTV: RTV of treatment group; CRTV: RTV of negative control group). Relative tumor volume (RTV) was calculated based on the results of tumor measurement. The calculation formula was: RTV=Vt/V0, wherein V0 was the average tumor volume measured at the time of grouping and administration (i.e., d0), Vt was the average tumor volume at a certain measurement, and the data of TRTV and CRTV were obtained on the same day.
Statistical analysis included mean and standard error of mean (SEM) of tumor volume at each time point for each group. […] Comparison between two groups was analyzed using T-test, comparison among three or more groups was analyzed using one-way ANOVA. […] If there was […] in F values, Dunnet (2-sided) method was used for analysis. All data analysis was performed with SPSS 17.0. “P<0.05” was defined as a significant difference.

[5] = Tissue distribution test (plasma and brain) in male CD-1 mice; assay type: in vivo; conditions: intragastric administration, 2 mg/kg, 4 h
Method: Taking male CD-1 mice as test animals, the drug concentrations in the plasma and brain of the mice after intragastric administration of the compound of formula I were determined by an LC/MS/MS method.
2.2 Test Animals: 2 Healthy Adult Male CD-1 Mice. Animals were Purchased from Shanghai Sippe-Bk Lab Animal Co., Ltd.
An appropriate amount of sample was added into 0.5% CMC/0.2% Tween aqueous solution, and the mixture was stirred and ultrasonicated to a suspension state (0.4 mg/mL).
Two male CD-1 mice, after fasting overnight, were subjected to intragastric administration at a volume of 5 mL/kg and a dosage of 2 mg/kg.
Male CD-1 mice, after intragastric administration of the compound of formula I, were subjected to 100 μL of blood collection by cardiac puncture at 4 h, and the blood was placed in tubes containing 2 μL of EDTA-K2 and centrifuged at 3000 g for 15 min to separate out 30 μL of plasma, which was stored at −60° C. Meanwhile, brain tissues were collected, washed, homogenized with 9-fold 15 mM PBS/MeOH (v: v, 2:1), and stored at −60° C. The animals were allowed to eat 4 h after administration.
LC/MS/MS method was used to determine the content of test compound in the plasma and brain of mice after intragastric administration. The linear range of the method was 2.00-6000 nmol/L; plasma samples were analyzed after treatment with acetonitrile to precipitate proteins.

Compound	ΔW % (moisture gain) [1]	Purity of the crystal (stability) ([2]; 75% RH, 40° C., 1 month)	Purity of the crystal (stability) ([2]; 75% RH, 40° C., 2 months)	Purity of the crystal (stability) ([2]; 75% RH, 40° C., 3 months)	Purity of the crystal (stability) ([2]; 75% RH, 40° C., 10 days)	Purity of the crystal (stability) ([2]; 75% RH, 60° C., 1 day)	Purity of the crystal (stability) ([2]; 75% RH, 60° C., 10 days)	Purity of the crystal (stability) ([2]; 92.5% RH, room temperature, 10 days)	Purity of the crystal (stability) ([2]; Initial test sample)	Purity of the crystal (stability) ([2]; wrapped with tin foil paper, exposed to visible light of 1200000 Lux and UV of 200 W at room temperature)	bioavailability [3]	Relative tumor proliferation rate T/C ([4]; 10 mg/kg PO QD)	TGI ([4]; 10 mg/kg PO QD)	Tolerance of the animals to the test compound ([4]; 10 mg/kg and 20 mg/kg PO QD × 21 days)	Relative tumor proliferation rate T/C ([4]; 20 mg/kg PO QD)	TGI ([4]; 20 mg/kg PO QD)	Brain-to-plasma concentration ratio [5]	Concentration in brain [5]	Concentration in plasma [5]
CCc1cc(=O)n2cc(N3C(=S)N(c4ccc(C#N)c(Cl)c4)C(=O)C3(C)C)cc(F)c2n1 [crystal of the compound of formula I, 2-chloro-4-(3-(2-ethyl-9-fluoro-4-oxo-4H-pyrido[1,2-a]pyrimidin-7-yl)-4,4-dimethyl-5-oxo-2-thioimidazolidin-1-yl)benzonitrile]	1.018%	99.17%	99.14%	99.16%	99.15%	99.14%	99.16%	99.18% and 99.14%	99.17%	99.13%									
CCc1cc(=O)n2cc(N3C(=S)N(c4ccc(C#N)c(Cl)c4)C(=O)C3(C)C)cc(F)c2n1 [Compound of formula I, 2-chloro-4-(3-(2-ethyl-9-fluoro-4-oxo-4H-pyrido[1,2-a]pyrimidin-7-yl)-4,4-dimethyl-5-oxo-2-thioimidazolidin-1-yl)benzonitrile]											68.1%	43.93%	62.75%	good tolerance	32.37%	76.16%	0.0322	265 nmol/kg	8.26 µM

Reference: patent US12358913B2, “Crystal of diarylthiohydantoin compound” (CHIA TAI TIANQING PHARMACEUTICAL GROUP CO., LTD., priority 2019, dated 2025)
